In ChEMBL document CHEMBL1201862, “PubChem BioAssay data set” (2004):
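A five-concentration, 48-hour dose response in 96-well plates underlies each endpoint, interpolated linearly between surrounding concentrations. Here, GI50 denotes the concentration required for 50% inhibition of growth.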 Active and inactive are the calls of the source. No stated cut-off is given here; in the data, active = GI50 up to about 1.1 µM and inactive = higher.

How the values were obtained:
Assay in all cases: NCI-60 cell line screen, 48 h
UACC-62 = tested on: UACC-62
SF-268 = tested on: SF-268
OVCAR-4 = tested on: OVCAR-4
CAKI-1 = tested on: CAKI-1
NCI/ADR-RES = tested on: NCI/ADR-RES
Malme-3M = tested on: Malme-3M
SK-MEL-5 = tested on: SK-MEL-5
SK-MEL-28 = tested on: SK-MEL-28
SF-295 = tested on: SF-295
HT-29 = tested on: HT-29
BT-549 = tested on: BT-549
SK-MEL-2 = tested on: SK-MEL-2
DU-145 = tested on: DU-145
NCI-H460 = tested on: NCI-H460
SR = tested on: SR
OVCAR-3 = tested on: OVCAR-3
TK-10 = tested on: TK-10
MDA-MB-231 = tested on: MDA-MB-231
NCI-H23 = tested on: NCI-H23

Measured: GI50

Cc1ccc(NCc2nnc3c(-c4ccccc4)nc4ccccc4n23)cc1
inactive: UACC-62 33.7 µM | SF-268 43.6 µM | OVCAR-4 28.2 µM | CAKI-1 30.1 µM | NCI/ADR-RES 50.9 µM | Malme-3M 37.2 µM | SK-MEL-5 14.4 µM | SK-MEL-28 64 µM | SF-295 33.7 µM | HT-29 21.5 µM | BT-549 37.4 µM | SK-MEL-2 24.8 µM | DU-145 25.2 µM | NCI-H460 28.8 µM | SR 13 µM | OVCAR-3 49.7 µM | TK-10 43.9 µM | MDA-MB-231 24.5 µM

Cc1ccnc2c1C(=O)C1=C(OC(C)(C)CC1O)C2=O (stereo not given)
inactive: UACC-62 1.71 µM | SF-268 1.79 µM | OVCAR-4 3.01 µM | CAKI-1 6.01 µM | NCI/ADR-RES 2.78 µM | Malme-3M 1.27 µM | SK-MEL-5 1.17 µM | SK-MEL-28 2.05 µM | SF-295 3.81 µM | NCI-H23 1.76 µM | HT-29 3.08 µM | BT-549 3.36 µM | SK-MEL-2 2.88 µM | DU-145 6.4 µM | NCI-H460 2.9 µM | SR 2.03 µM | OVCAR-3 2.67 µM | TK-10 12 µM | MDA-MB-231 2.97 µM

CC1=C(C(=O)OCCO[N+](=O)[O-])C(c2cccc([N+](=O)[O-])c2)C(C(=O)OC(C)C)=C(C)N1 (stereo not given)
inactive: UACC-62 14.5 µM | SF-268 13.1 µM | OVCAR-4 3.76 µM | CAKI-1 17.6 µM | NCI/ADR-RES 10.5 µM | Malme-3M 17.7 µM | SK-MEL-5 12.8 µM | SK-MEL-28 14.3 µM | SF-295 11.4 µM | NCI-H23 17.6 µM | HT-29 15.2 µM | BT-549 14 µM | SK-MEL-2 13 µM | DU-145 25.3 µM | NCI-H460 13.8 µM | SR 24.8 µM | OVCAR-3 10.4 µM | TK-10 14.9 µM | MDA-MB-231 13.3 µM

COC(=O)c1cc2c(cc1Cl)Sc1nnc(Nc3ccc(C)cc3)n1S2(=O)=O
inactive: UACC-62 12.3 µM | SF-268 3.6 µM | OVCAR-4 2.76 µM | CAKI-1 10.4 µM | NCI/ADR-RES 11.1 µM | Malme-3M 11 µM | SK-MEL-5 13.8 µM | SK-MEL-28 9.33 µM | SF-295 10.9 µM | NCI-H23 3.61 µM | HT-29 3.92 µM | BT-549 13.4 µM | SK-MEL-2 2.9 µM | DU-145 2.65 µM | NCI-H460 11.6 µM | SR 2.12 µM | OVCAR-3 2.19 µM | TK-10 14.3 µM | MDA-MB-231 10.6 µM
